{"source": "paper PMC10419416", "about": "“Fighting Pseudomonas aeruginosa Infections: Antibacterial and Antibiofilm Activity of D-Q53 CecB, a Synthetic Analog of a Silkworm Natural Cecropin B Variant” (International Journal of Molecular Sciences, 2023)", "key": {"[1]": {"tested_on": "T1, P. aeruginosa elastase", "T1 construct": "purchased Elastin Products Company", "assay": "Enzymatic digestion with P. aeruginosa elastase, RP-HPLC", "format": "in vitro ADME", "settings": "isolated enzyme elastase; peptide 1 mg/mL in 10 mM Tris-HCl pH 7.5, 20 U P. aeruginosa elastase, 37 °C, 30 min, RP-HPLC C18 peak integration; read-out: % of full-length peptide", "protocol": "(§1) L- and D-Q53 CecB peptides, as well as the human LL-37 peptide (Merck, Burlington, MA, USA), were dissolved in 10 mM Tris-HCl, pH 7.5, at a final concentration of 1 mg/mL. Subsequently, 120 μL of each peptide solution were incubated at 37 °C with 20 U of human leukocyte elastase (Merck) or P. aeruginosa elastase (Elastin Products Company, Owensville, MO, USA) and 5 μL of 10 mM Tris-HCl, pH 7.5. At given time intervals (30, 60, 120, and 300 min), a volume corresponding to 30 μg of each peptide was diluted in 70 μL of 1% trifluoroacetic acid (TFA) to stop the reaction. Peptide suspensions,v without any enzyme (undigested controls), were processed in parallel. Each solution was analyzed by RP-HPLC, using a Phenomenex LC C18 analytical column (300 Å, […], 250 × 4.6 mm; Phenomenex, Torrance, CA, USA) and a Widepore C18 security guard cartridge (4 × 3.0 mm; Phenomenex, Torrance, CA, USA), in a 30 min-linear Acetonitrile (ACN) gradient (from 0% to 40% for L- and D-Q53 CecB peptides; from 20% to 60% for LL-37). A Waters Alliance 2695 Separations Module connected to a 996 PDA (Waters, Milford, MA, USA) was employed for RP-HPLC."}, "[2]": {"tested_on": "T2, human neutrophil elastase", "T2 construct": "purchased Merck", "assay": "Enzymatic digestion with human neutrophil elastase, RP-HPLC", "format": "in vitro ADME", "settings": "isolated enzyme elastase; peptide 1 mg/mL in 10 mM Tris-HCl pH 7.5, 20 U human leukocyte elastase, 37 °C, 5 h (300 min), RP-HPLC C18 peak integration; read-out: % of intact peptide", "protocol": "as §1"}, "[3]": {"tested_on": "P. aeruginosa ATCC 27853, non-mucoid strain", "format": "cell-based, Pseudomonas aeruginosa", "settings": "for biofilm biomass vs untreated controls (biofilm formation): 24 h", "protocol": "(§2) An ON bacterial culture was diluted to 2 × 10^6 cells/mL in an LB medium. 50 µL/well were seeded in a sterile non-treated polystyrene 96-well plate (Corning) and added with 50 µL LB medium containing serial dilutions of each compound (final concentrations of L- and D-Q53 CecB peptides: from 0.034 to 17.6 µM; final concentrations of tobramycin: 0.27 and 0.53 μM, and from 2.14 to 17 μM). Each condition was tested in three-six replicates. Wells containing untreated bacteria (negative controls) or LB medium only (blank) were followed in parallel. Each plate was incubated for 24 h at 37 °C without agitation. After washing twice, samples were stained with a 0.1% crystal violet solution for 20 min, washed three times, and incubated in 30% acetic acid for 20 min, as in [74]. Plates were read at 595 nm using a microplate reader. For each sample, the biofilm biomass percentage was calculated relative to that of the untreated control showing the highest OD value, set equal to 100%. Each experiment was performed at least twice."}, "[4]": {"tested_on": "P. aeruginosa ATCC 25668, mucoid strain", "format": "cell-based, Pseudomonas aeruginosa", "settings": "for biofilm biomass vs untreated controls (biofilm formation): 24 h", "protocol": "as §2"}, "[5]": {"tested_on": "P. aeruginosa ATCC 27853, non-mucoid strain", "assay": "Degradation of pre-formed 24 h old biofilm, crystal violet", "format": "cell-based, Pseudomonas aeruginosa", "settings": "1 h; L-Q53 CecB 1/2 to 8 MIC, tobramycin 1 to 8 MIC", "protocol": "(§3) One hundred μL of bacteria (1 × 10^6 cells/mL), derived from a fresh ON culture, were seeded in a sterile non-treated polystyrene 96-well plate (Corning) and incubated for 24 h at 37 °C without agitation. […] Evaluation of biofilm biomass was performed using a crystal violet assay as described above (Section 4.8). Experiments were performed two-four times."}, "[6]": {"tested_on": "P. aeruginosa ATCC 25668, mucoid strain", "assay": "Degradation of pre-formed 24 h old biofilm, crystal violet", "format": "cell-based, Pseudomonas aeruginosa", "settings": "1 h; L-Q53 CecB 1/2 to 8 MIC (except 4 MIC), tobramycin 1 to 8 MIC", "protocol": "as §3"}, "[7]": {"tested_on": "P. aeruginosa ATCC 27853 and ATCC 25668 strains", "assay": "microbe, parasite or virus in culture", "format": "cell-based, Pseudomonas aeruginosa", "settings": "Pseudomonas aeruginosa, 24 h", "protocol": "(§4) The following strains were used: P. aeruginosa ATCC 27853, ATCC 25668, and PAO1-L (Lausanne subline). All strains were grown at 37 °C in Luria Bertani (LB) medium or in Luria Bertani Agar (LBA) plates.\n(§5) The antibacterial activities of L- and D-Q53 CecB were evaluated by determining (i) the MIC and (ii) the MBC. Tobramycin (Merck) was used as an antibiotic control. (i) An overnight (ON) bacterial culture was diluted to 1 × 10^6 cells/mL in LB medium. 50 µL/well were seeded in sterile polypropylene 96-well plates (Corning, Corning, NY, USA) and added with 50 µL LB medium, containing serial dilutions of each compound (final concentrations of L- and D-Q53 CecB peptides from 1.1 to 35.2 µM; final concentrations of tobramycin from 0.26 to 17 μM; each condition in triplicate). Microbial suspensions in the growing medium (positive control) and wells with only the medium (negative controls) were processed in parallel. Plates were incubated 24 h at 37 °C with agitation (300 rpm), and the absorbance was measured at 600 nm in a microplate reader. The MIC was considered as the lowest concentration determining a delta optical density at 600 nm (ΔOD600) equal to 0 ± 0.05. The ΔOD600 was determined by subtracting the OD600 recorded at time 0 from that obtained after 24 h. Each experiment was performed at least three times. […] For each sample, 100 μL of 1:10, 1:100, and 1:1000 dilutions were plated on LBA plates, and colonies were counted after 24 h at 37 °C. […] Each experiment was performed at least twice."}, "[8]": {"tested_on": "P. aeruginosa PAO1-L strain", "assay": "microbe, parasite or virus in culture", "format": "cell-based, Pseudomonas aeruginosa", "settings": "Pseudomonas aeruginosa, value between parentheses, 24 h, 37 °C, plating on LBA", "protocol": "as §4, §5"}, "[9]": {"tested_on": "P. aeruginosa ATCC 25668, ATCC 27853, and PAO1-L strains", "assay": "microbe, parasite or virus in culture", "format": "cell-based, Pseudomonas aeruginosa", "settings": "Pseudomonas aeruginosa; LB medium, 24 h, 37 °C, OD600; same value for all three strains; triplicate, at least three experiments", "protocol": "as §4, §5"}, "[10]": {"settings": "concentrations from 8 to 1 MIC (1 MIC = 2.2 µM peptides, 2.14 µM tobramycin), 24 h static, 37 °C, stated for both strains"}}, "note": "Like-named read-outs stand apart in the source and are kept apart here.", "data": [{"smiles": "CC[C@H](C)[C@H](NC(=O)[C@H](CCCCN)NC(=O)[C@H](CCC(=O)O)NC(=O)[C@H](CCCCN)NC(=O)[C@H](CO)NC(=O)[C@H](CCCCN)NC(=O)[C@H](CCCNC(=N)N)NC(=O)[C@H](Cc1ccccc1)NC(=O)[C@H](Cc1ccccc1)NC(=O)[C@H](CC(=O)O)NC(=O)CNC(=O)[C@H](CC(C)C)NC(=O)[C@@H](N)CC(C)C)C(=O)NCC(=O)N[C@@H](CCCCN)C(=O)N[C@@H](CCC(=O)O)C(=O)N[C@@H](Cc1ccccc1)C(=O)N[C@@H](CCCCN)C(=O)N[C@@H](CCCNC(=N)N)C(=O)N[C@H](C(=O)N[C@H](C(=O)N[C@@H](CCC(N)=O)C(=O)N[C@@H](CCCNC(=N)N)C(=O)N[C@H](C(=O)N[C@@H](CCCCN)C(=O)N[C@@H](CC(=O)O)C(=O)N[C@@H](Cc1ccccc1)C(=O)N[C@@H](CC(C)C)C(=O)N[C@@H](CCCNC(=N)N)C(=O)N[C@@H](CC(N)=O)C(=O)N[C@@H](CC(C)C)C(=O)N[C@H](C(=O)N1CCC[C@H]1C(=O)N[C@@H](CCCNC(=N)N)C(=O)N[C@H](C(=O)N[C@@H](CCC(=O)O)C(=O)N[C@@H](CO)C(=O)O)[C@@H](C)O)C(C)C)[C@@H](C)CC)C(C)C)[C@@H](C)CC", "note": "[LL-37, reference compound]", "values": [{"measurement": "remaining at 0.5 h, 1 mg/mL", "setting": "[1]", "result": "~0.2", "unit": "%"}, {"measurement": "remaining at 5 h, 1 mg/mL", "setting": "[2]", "result": 8.7, "unit": "%"}]}, {"smiles": "NC[C@H]1O[C@H](O[C@H]2[C@H](O)[C@@H](O[C@H]3O[C@H](CO)[C@@H](O)[C@H](N)[C@H]3O)[C@H](N)C[C@@H]2N)[C@H](N)C[C@@H]1O", "note": "[Tobramycin, reference compound]", "values": [{"measurement": "biofilm biomass vs untreated controls (biofilm formation)", "setting": "[3]; 1/4 MIC", "result": "not affected"}, {"measurement": "biofilm biomass vs untreated controls (biofilm formation)", "setting": "[3]; 1/8 MIC", "result": "not significantly different"}, {"measurement": "decrement in biofilm biomass vs untreated controls (inhibition of biofilm formation)", "setting": "[3]; [10]", "result": "~ 99.9%"}, {"measurement": "biofilm biomass vs untreated controls (biofilm formation)", "setting": "[4]; 1/4 MIC", "result": "significantly higher"}, {"measurement": "biofilm biomass vs untreated controls (biofilm formation)", "setting": "[4]; 1/8 MIC", "result": "not significantly different"}, {"measurement": "decrement in biofilm biomass vs untreated controls (inhibition of biofilm formation)", "setting": "[4]; [10]", "result": "~ 99.9%"}, {"measurement": "reduction of pre-formed biofilm biomass at all tested concentrations", "setting": "[5]", "result": "not efficient"}, {"measurement": "reduction of pre-formed biofilm biomass at all tested concentrations", "setting": "[6]", "result": "not efficient"}, {"measurement": "MBC", "setting": "[7]", "result": 4.29, "unit": "µM"}, {"measurement": "MBC", "setting": "[8]", "result": 8.56, "unit": "µM"}, {"measurement": "MIC", "setting": "[9]", "result": 2.14, "unit": "µM"}]}]}
